These are literature values, as cited in EP0975321B1, “THE USE OF THIOGLYCOLIC ACID AS DEPIGMENTING AGENT” (I.V. Pharma S.A.S., priority 1997, dated 1998).

For the data set the following is noted: Acidic strength; Table 1.

Molecules are shown by their SMILES.

For the compound `O=C(O)C(Cl)(Cl)Cl` [Trichloroacetic acid], the pKa value is 0.70. Turning to `O=C(O)CS` [Tioglycolic acid, 2-mercaptoacetic acid], the pKa value is 3.68.
